From patent US12162884B2, “Solid forms of (R)-N-(2-(5-fluoropyridin-3-yl)-8-isopropylpyrazolo[1,5-a] [1,3,5]triazin-4-yl)-2,3,4,9-tetrahydro-1H-carbazol-3-amine as aryl hydrocarbon receptor (AHR) inhibitors” (Ikena Oncology, Inc., priority 2019, dated 2024)
≈ marks a conversion by molar mass, not a printed value. Marks after values point to notes of the source that are not given here.

How the values were obtained:
[1] = Stability studies at 40° C./75% RH (HPLC); assay type: physicochemical; conditions: for stability / degradation over time: Time 0, 1 week, 2 weeks, 4 weeks
Method: Stability studies of compound A, Form B, Compound 1, Form B, Compound 2, Form A, Compound 3, Form B, and Compound 4, Form A was carried out at 40° C./75% RH. Samples were stored in loosely capped vials in a chamber containing a saturated NaCl solution to achieve approximately 75% RH within the chamber. The chamber was stored in a 40° C. oven. Samples were analyzed at Time 0, 1 week, 2 weeks, and 4 weeks using the HPLC parameters described above in Table 13.

[2] = Solubility studies in water, FaSSIF, FeSSIF and FaSSGF (excess solids in 5 mL medium at 37° C., HPLC; pH, XRPD and NMR of remaining material); assay type: physicochemical; conditions: for Solubility / solubility at 24 hours in FeSSIF: 37° C.; for pH: pH of solubility sample; for solubility at 30 min / solubility at 120 min / solubility at 24 h: 37 °C, thermodynamic from solid; for solubility at 24 hours in FeSSIF: comparison among the tested forms
Method: Simulated fluids were sourced from and prepared according to biorelevant.com using their FaSSIF/FeSSIF/FaSSGF Powder (v1, formerly known as SIF Powder). Samples were prepared by adding excess solids to 5 mL of medium at 37° C. Samples were pulled and filtered at 30 minutes, 120 minutes, and 24 hours and tested for solution concentration using the HPLC parameters described below in Table 13.
The pH of the samples at each timepoint was also measured; pH paper was used at 30 minutes and 120 minutes due to the small sample size, and a pH meter was used at 24 hours. The remaining material from all trials was analyzed by XRPD after 24 hours to determine if any polymorphic form changes had taken place. The remaining material from trials in water was analyzed by NMR after 24 hours to determine if disassociation had taken place.

[3] = FaSSGF, fassgf or other biorelevant, 30 minutes
[4] = FaSSGF, fassgf or other biorelevant, 120 minutes
[5] = FaSSGF, fassgf or other biorelevant, 24 hours

Compound | % Area ([1]; 1 Week, HPLC) [% Area] | % Area ([1]; 2 Weeks, HPLC) [% Area] | % Area ([1]; 4 Weeks, HPLC) [% Area] | stability / degradation over time ([1]; HPLC) | Solubility ([2]; FaSSIF, 30 minutes) [µg/mL] | Solubility ([2]; FaSSIF, 120 minutes) [µg/mL] | Solubility ([2]; FaSSIF, 24 hours) [µg/mL] | Solubility ([2]; FeSSIF, 30 minutes) [µg/mL] | Solubility ([2]; FeSSIF, 120 minutes) [µg/mL] | pH ([2]; FaSSIF, 30 minutes, pH paper) | pH ([2]; FaSSIF, 120 minutes, pH paper) | pH ([2]; FaSSIF, 24 hours, pH meter) | pH ([2]; FeSSIF, 30 minutes, pH paper) | pH ([2]; FeSSIF, 120 minutes, pH paper) | pH ([2]; FeSSIF, 24 hours, pH meter) | pH ([2]; Water, 120 minutes, pH paper) | pH ([2]; Water, 24 hours, pH meter) | % Area ([1]; Time 0, HPLC) [% Area] | pH ([2]; FaSSGF, 24 hours, pH meter) | pH ([2]; Water, 30 minutes, pH paper) | further results
CC(C)c1cnn2c(N[C@@H]3CCc4[nH]c5ccccc5c4C3)nc(-c3cncc(F)c3)nc12 [Compound A Form B, (3R)—N-[2-(5-fluoro-3-pyridyl)-8-isopropyl-pyrazolo[1,5-a][1,3,5]triazin-4-yl]-2,3,4,9-tetrahydro-1H-carbazol-3-amine] | 99.22 | 99.05 | 99.58 | equally stable | 4.9 (≈ 11.1 µM) | 11 (≈ 24.9 µM) | 9.5 (≈ 21.5 µM) | <0.1 | 27 (≈ 61.2 µM) | 6 | 6 | 6.4 | 5 | 5 | 4.8 | 4.5 | 7.7 |  |  |  | % Area ([1]; Time 0, HPLC, 1 mg/mL): 99.62* % Area; Solubility ([2]; FaSSGF, 30 minutes): <0.1 µg/mL; Solubility ([2]; FaSSGF, 120 minutes): <0.1 µg/mL; Solubility ([2]; FaSSGF, 24 hours): <0.1 µg/mL; Solubility ([2]; FeSSIF, 24 hours): 21 µg/mL (≈ 47.6 µM); Solubility ([2]; Water, 30 minutes): <0.1 µg/mL; Solubility ([2]; Water, 120 minutes): <0.1 µg/mL; Solubility ([2]; Water, 24 hours): <0.1 µg/mL
CC(C)c1cnn2c(N[C@@H]3CCc4[nH]c5ccccc5c4C3)nc(-c3cncc(F)c3)nc12 [Compound 2 Form A] | 99.20 | 98.30 | 98.58 | fairly stable | 78 (≈ 177 µM) | 40 (≈ 90.6 µM) | 14 (≈ 31.7 µM) | 58 (≈ 131 µM) | 160 (≈ 362 µM) | 6 | 6 | 5.0 | 5 | 5 | 4.7 | 4 | 2.9 | 99.87 | 1.2 | 3.5 | loss of area over four weeks ([1]; four weeks, HPLC): ~1.5 % area; solubility at 30 min [2, 3]: < 0.1 µg/mL; solubility at 120 min [2, 4]: < 0.1 µg/mL; solubility at 24 h [2, 5]: < 0.1 µg/mL; Solubility ([2]; FeSSIF, 24 hours): 120 µg/mL (≈ 272 µM); solubility at 24 hours in FeSSIF ([2]; FeSSIF, 24 hours): highest solubility; solubility at 30 min ([2]; water, 30 minutes): < 0.1 µg/mL; solubility at 120 min ([2]; water, 120 minutes): < 0.1 µg/mL; solubility at 24 h ([2]; water, 24 hours): < 0.1 µg/mL
CC(C)c1cnn2c(N[C@@H]3CCc4[nH]c5ccccc5c4C3)nc(-c3cncc(F)c3)nc12 [Compound 4 Form A] | 94.31 | 94.20 | 99.37 | exhibited degradation at 1 and 2 weeks, but the degradant peaks were no longer present at 4 weeks | 71 (≈ 161 µM) | 38 (≈ 86.1 µM) | 25 (≈ 56.6 µM) | 48 (≈ 109 µM) | 110 (≈ 249 µM) | 6 | 5.5 | 1.9 | 5 | 4.5 | 4.4 | 3 | 1.5 | 99.77 | 1.1 | 4.5 | Solubility ([2]; FaSSGF, 30 minutes): <0.1 µg/mL; Solubility ([2]; FaSSGF, 120 minutes): <0.1 µg/mL; Solubility ([2]; FaSSGF, 24 hours): <0.1 µg/mL; Solubility ([2]; FeSSIF, 24 hours): 33 µg/mL (≈ 74.7 µM); Solubility ([2]; Water, 30 minutes): <0.1 µg/mL; Solubility ([2]; Water, 120 minutes): <0.1 µg/mL; Solubility ([2]; Water, 24 hours): <0.1 µg/mL; pH ([2]; FaSSGF, 30 minutes, pH paper): 1.5; pH ([2]; FaSSGF, 120 minutes, pH paper): 1.5
CC(C)c1cnn2c(N[C@@H]3CCc4[nH]c5ccccc5c4C3)nc(-c3cncc(F)c3)nc12.CS(=O)(=O)O [Compound 3 Form B] | 91.60 | 69.61 | 16.23 | significant degradation was observed over time |  |  |  |  |  | 6 | 6 | 5.7 | 5 | 5 | 4.4 | 4 | 2.4 | 99.88 | 1.2 | 4 | solid state of the solids at the end of the study ([1]; end of the study): lost all crystallinity and became x-ray amorphous; solubility at 30 min [2, 3]: < 0.1 µg/mL; solubility at 120 min [2, 4]: < 0.1 µg/mL; solubility at 24 h [2, 5]: < 0.1 µg/mL; solubility at 30 min ([2]; FaSSIF, 30 minutes): 65 µg/mL; solubility at 120 min ([2]; FaSSIF, 120 minutes): 34 µg/mL; solubility at 24 h ([2]; FaSSIF, 24 hours): 16 µg/mL; solubility at 24 hours in FeSSIF ([2]; FeSSIF, 24 hours): highest solubility; solubility at 30 min ([2]; FeSSIF, 30 minutes): 27 µg/mL; solubility at 120 min ([2]; FeSSIF, 120 minutes): 43 µg/mL; solubility at 24 h ([2]; FeSSIF, 24 hours): 160 µg/mL; pH ([2]; FaSSGF, 30 minutes, pH paper): 1.5; pH ([2]; FaSSGF, 120 minutes, pH paper): 1.5; solubility at 30 min ([2]; water, 30 minutes): < 0.1 µg/mL; solubility at 120 min ([2]; water, 120 minutes): < 0.1 µg/mL; solubility at 24 h ([2]; water, 24 hours): < 0.1 µg/mL
CC(C)c1cnn2c(N[C@@H]3CCc4[nH]c5ccccc5c4C3)nc(-c3cncc(F)c3)nc12.CCS(=O)(=O)O [Compound 1 Form B] | 99.59 | 99.53 | 99.46 | equally stable |  |  |  |  |  | 6 | 6 | 6.2 | 5 | 5 | 4.8 | 4.5 | 3.4 | 99.90 | 1.2 | 4.5 | solubility at 30 min [2, 3]: < 0.1 µg/mL; solubility at 120 min [2, 4]: < 0.1 µg/mL; solubility at 24 h [2, 5]: < 0.1 µg/mL; solubility at 30 min ([2]; FaSSIF, 30 minutes): 45 µg/mL; solubility at 120 min ([2]; FaSSIF, 120 minutes): 34 µg/mL; solubility at 24 h ([2]; FaSSIF, 24 hours): 18 µg/mL; solubility at 30 min ([2]; FeSSIF, 30 minutes): 58 µg/mL; solubility at 120 min ([2]; FeSSIF, 120 minutes): 56 µg/mL; solubility at 24 h ([2]; FeSSIF, 24 hours): 63 µg/mL; pH ([2]; FaSSGF, 30 minutes, pH paper): 1.5; pH ([2]; FaSSGF, 120 minutes, pH paper): 1.5; solubility at 30 min ([2]; water, 30 minutes): < 0.1 µg/mL; solubility at 120 min ([2]; water, 120 minutes): < 0.1 µg/mL; solubility at 24 h ([2]; water, 24 hours): < 0.1 µg/mL
